Experimental findings from US20070264212A1, “Skin Lightening Method” (priority 2004, published 2007) are described below.

Common to all, as to type: in vivo, human
The test system of assay [1] is skin tone of adult test subject, skin type IV (moderate brown), Fitzpatrick classification. As to the kind of experiment: Skin tone lightening by oral MSM supplement taken twice daily (Table I). Conditions: 3 months. The method, then:
A first procedure for performing step 102 is described in Table I below, at various dosage levels and application periods. The application periods indicated in the table were carried out in immediately successive periods on the same individual. Exemplary results are also shown in Table I, for an adult test subject of approximately 45 kg weight having a skin type IV (moderate brown) according to the Fitzpatrick skin type classification. […] Because of variation between individuals, the effective amount of MSM that should be delivered to cause a noticeable change in skin tone may vary somewhat. For example, dosage should be calculated based on body weight. Based on the disclosure herein, one of ordinary skill should be able to determine an effective dosage regimen without undue experimentation. […] For the tested individual, the optimal dose for maximum skin lightening appears to be between 2000 and 4000 mg (45 to 90 mg/kg) daily.

For assay [2] the test system is unchanged. As to the kind of experiment: Skin tone lightening by oral MSM plus topical application of MSM in water solution (Table II). As to conditions: once daily, 3 months. The method, then:
In an alternative embodiment, step 102 may be performed by oral delivery of MSM in combination with a topical application. […] Exemplary results are also shown in […], for the same test subject reported in Table I. Each row of the table indicates result for a procedure that was performed during one of successive 3-month periods. For each procedure described in Table II, MSM delivered was in an effective amount for the reported test subject. Again, some variation in effective amount should be expected between individuals. For the procedures described in Table II, a topical application may be prepared by dissolving the indicated amount of MSM in water to provide an approximately 15% by weight solution. For example, one tablespoon of MSM may be dissolved in 8 to 10 tablespoons of warm water to prepare the solution indicated in the first row. Then, the solution may be applied to the skin, which may be kept moistened with the solution for a period of approximately ten minutes or longer. The solution may be applied cover the entire body, or only in areas where greater lightening of skin tone is desired. The indicated application may be performed once daily for approximately a three-month period. […] Suitable formulations for transdermal patches to deliver MSM should be readily ascertained by one of ordinary skill.

The subject of assay [3] is skin tone of test subject having a natural skin tone of Fitzpatrick type IV. As to the kind of experiment: Skin tone lightening by oral and topical MSM in combination with an exfoliate. As to conditions: oral and topical MSM plus exfoliate (e.g. twice-weekly 30% lactic or glycolic acid rinse). The text has this:
Referring again to FIG. 1, at step 104, a skin lightening effect may be enhanced by application of an exfoliant during the MSM treatment period. The exfoliant is believed to cause more darkly pigmented cells that formed during a pre-treatment period to be more rapidly shed. […] For example, the treatment regimen described in the second row of Table III may be combined with a twice-weekly rinse in an exfoliate solution. A suitable exfoliate solution may comprise, for example, a 30% solution of lactic or glycolic acid. A lactic acid solution may be more suitable for an individual with sensitive skin. In a test using an exfoliate in combination with oral and topical application, the test subject having a natural skin tone of Fitzpatrick type IV achieved and maintained a class III tone overall, with class II tone in constitutive skin areas.

[4] abbreviates: oral MSM 2000 mg twice daily (4000 mg daily), successive period, same subject.

“Also recorded” adds a separate entry of the source.

On to `CS(C)(=O)=O` [MSM, methyl sulfonyl methane], for which the “Results (observed skin tone)” value in assay [1] (oral MSM 100 mg twice daily (200 mg daily), adult person ~45 kg, skin type IV) is recorded as “No Change”; in assay [1] (oral MSM 250 mg twice daily (500 mg daily), successive period, same subject), “No Change”; in assay [1] (oral MSM 500 mg twice daily (1000 mg daily), successive period, same subject) it was “No Change”; in assay [1] (oral MSM 3000 mg twice daily (6000 mg daily), successive period, same subject), “did not cause noticeable lightening relative to the 4000 mg regimen; also recorded: Same results as 4000 mg per day”. Further, the “Results (observed skin tone), constitutive skin such as under the arms, inner thighs, chests and nipples” value in assay [1] (oral MSM 1000 mg twice daily (2000 mg daily), successive period, same subject) is on record as “Light Brown (skin type III)”. The “Results (observed skin tone), constitutive skin” value in assay [1] (setting [4]) is recorded as “Olive (skin type II) observed in”. Moreover, in assay [1] (setting [4]), the “Results (observed skin tone), facultative skin such as the neck, face, forearms” value is listed as “Light Brown (skin type III)”. In addition, in assay [1] (setting [4]), the “Results, freckles on face” value was “Freckles on face also lightened”. Besides, the “Results (observed skin tone), total body complexion” value in assay [2] (oral 2000 mg twice daily (4000 mg daily) + topical 1 Tablespoon (10,000 mg) MSM in water, approx. 15% solution) was “Light olive (skin type III)”. Further, the “Results (observed skin tone), elsewhere than constitutive skin” value in assay [2] (oral 2000 mg twice daily (4000 mg daily) + topical 2 Tablespoons (20,000 mg) MSM in water) was “light olive; elsewhere light olive”. Moreover, the “Skin tone achieved and maintained, constitutive skin areas” value in assay [3] is recorded as “class II”. The “Skin tone achieved and maintained, overall” value in assay [3] is “class III”.
